Results taken from ChEMBL document CHEMBL1148242, “New benzo[5,6]pyrrolizino[1,2-b]quinolines as cytotoxic agents” (Bioorg Med Chem Lett, 2004).

Assays:
Assay type in all cases: functional, cell-based
L1210 = assay: In vitro cytotoxic activity of compound against mouse leukemia L1210 cell line
MCF7 = assay: In vitro cytotoxic activity of compound against human MCF-7 cell line
PC-3 = assay: In vitro cytotoxic activity of compound against human PC3 cell line

SMILES | IC50 (L1210) [µM] | IC50 (MCF7) [µM] | IC50 (PC-3) [µM]
Cc1c2c(nc3ccc(O)cc13)-c1cc3cc(O)ccc3n1C2 | 3.4 | > 50 | > 10
Cc1c2c(nc3ccc(OCCN4CCCCC4)cc13)-c1cc3cc(OCCN4CCCCC4)ccc3n1C2 | 0.55 | 4.6 | 5.3
COc1ccc2c(c1)cc1n2Cc2c-1nc1ccc(O)cc1c2C | 0.6 | 12 | > 50
CC[C@@]1(O)C(=O)OCc2c1cc1n(c2=O)Cc2cc3ccccc3nc2-1 [CAMPTOTHECIN] | 0.06 | 0.32 | 0.31
Cc1c2c(nc3ccc(OCCN4CCCCC4)cc13)-c1cc3cc(O)ccc3n1C2 | 0.55 | 0.55 | 4.94
COc1ccc2c(c1)cc1n2Cc2c-1nc1ccc(OCCN3CCCCC3)cc1c2C | 3.93 | 5.3 | 5.5
CCc1c2c(nc3ccc(OCCN4CCCCC4)cc13)-c1cc3cc(O)ccc3n1C2 | 0.55 | 6.3 | 4.8
